Consider 18 compounds from US12065430B2, “Indazole compound or salt thereof” (TAIHO PHARMACEUTICAL CO., LTD., priority 2018, dated 2024).

A word on the IC50: it is the concentration that inhibits the measured activity by half.

One assay has as its system NCI-H358 cells. The experiment in a line: Growth inhibition activity on KRAS-G12C mutant cell line (NCI-H358) (in vitro, CellTiter-Glo2.0). The following applies: Homo sapiens, NCI-H358, 72 h, 3-day culture in the presence of the compound. The format is cell-based. As to the method:
NCI-H358 cells (ATCC, Cat #: CRL-5807), which are a KRAS-G12C mutant human lung cancer cell line, were suspended in a 10% fetal bovine serum-containing RPMI1640 medium (manufactured by Fujifilm Wako Pure Chemical Corporation.). The cell suspension was seeded into each well of a 384-well flat-bottom microplate and cultured in an incubator containing 5% CO2 gas at 37° C. for 1 day. The test compound was dissolved in DMSO, and diluted with DMSO to give a concentration 500 times the final concentration. The solution of the test compound in DMSO was diluted with the medium used for suspending cells and added to each well of the cell-culture plate to give a DMSO final concentration of 0.2%, followed by culture in an incubator containing 5% CO2 gas at 37° C. for another 3 days. The cell count after 3-day culture in the presence of the compound was measured using CellTiter-Glo2.0 (manufactured by Promega Corporation) in accordance with the protocol recommended by Promega Corporation. The growth inhibition rate was calculated from the following equation, and the concentration of the test compound at which 50% inhibition was achieved (IC50 (nM)) was determined. […] Growth Inhibition Rate (%)=(C−T)/(C)×100 • T: the emission intensity in a well into which a test compound was added. • C: the emission intensity in a well into which a test compound was not added.
For orientation: In ATP-based viability assays light output follows the ATP content of the culture.

The target in another assay is G12C K-Ras4B (1-169) (Homo sapiens (Human), UniProt P01116, G12C). The experiment in a line: Test of compounds on whether to bind to KRASG12C (LC-MS compound binding rate). The following applies: final compound concentration of 2 μM, 1 μM protein, 25° C. for 2 hours. The method in brief:
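K-Ras4B (1-169) WT and G12C (1 μM each, mixed) in 1×TBS, 0.1 mM TCEP incubated with compound (final 2 μM) 2 h at 25° C; quenched with 0.2% formic acid. Intact-protein LC-MS (ESI+, deconvoluted); binding rate = adduct signal/(adduct + unbound signal), giving selectivity over WT.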

For assay [1], the system named is cancer cells with KRAS G12C mutation. The settings on record: reported in PTL 1 and NPL 2; cited from earlier work.
Assay [2] concerns the target G12C mutant of inactive KRAS (GDP) (Homo sapiens (Human), UniProt P01116, G12C). The settings on record: reported in PTL 1 and NPL 2; cited from earlier work.
Assay [3] concerns tumor-bearing mice expressing KRAS G12C mutation. The settings on record: reported in PTL 2 and NPL 3; cited from earlier work.

G12C K-Ras4B (1-169), sequence (P01116 other isoform, or with tags, fused parts or gaps G12C): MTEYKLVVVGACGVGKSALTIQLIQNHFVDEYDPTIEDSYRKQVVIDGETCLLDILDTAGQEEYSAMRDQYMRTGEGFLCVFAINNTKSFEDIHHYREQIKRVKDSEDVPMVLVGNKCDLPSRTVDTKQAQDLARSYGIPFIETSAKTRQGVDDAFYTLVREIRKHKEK
G12C mutant of inactive KRAS (GDP), sequence (P01116-2 other isoform, or with tags, fused parts or gaps G12C): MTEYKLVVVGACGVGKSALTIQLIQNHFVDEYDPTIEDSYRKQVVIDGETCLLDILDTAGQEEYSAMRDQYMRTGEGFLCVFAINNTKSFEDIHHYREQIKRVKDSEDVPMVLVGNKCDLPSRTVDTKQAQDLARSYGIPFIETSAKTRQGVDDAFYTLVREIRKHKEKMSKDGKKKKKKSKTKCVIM

For the compound `C=CC(=O)N1C[C@@H](C)[C@@H](NC(=O)c2c(Cl)nc(CNc3n[nH]c4cc(Cl)c(C(C)(C)C)cc34)n2C)C1` [Example 78, N-((3R,4R)-1-acryloyl-4-methylpyrrolidin-3-yl)-2-(((5-(tert-butyl)-6-chloro-1H-indazol-3-yl)amino)methyl)-4-chloro-1-methyl-1H-imidazole-5-carboxamide], the IC50 in the assay on NCI-H358 cells was 350 nM. Besides, the “binding rate for G12C K-Ras4B (1-169)” value on G12C K-Ras4B (1-169) was “B (a binding rate of 60% or more and less than 80% is rated “B,”)”.
For the compound `C=CC(=O)N1CC(NC(=O)c2c(Cl)nc(CNc3n[nH]c4cc(Cl)c(C(C)(C)C)cc34)n2C)C1` [Example 29, N-(1-acryloylazetidin-3-yl)-2-(((5-(tert-butyl)-6-chloro-1H-indazol-3-yl)amino)methyl)-4-chloro-1-methyl-1H-imidazole-5-carboxamide], in the assay with NCI-H358 cells, the IC50 was 34 nM. In addition, at G12C K-Ras4B (1-169), the “binding rate for G12C K-Ras4B (1-169)” value was “B (a binding rate of 60% or more and less than 80% is rated “B,”)”.
Take `C=CC(=O)N1CC(N2CCN(C(=O)CNc3cc(C4(C)CC4)c(Cl)cc3O)CC2)C1` [ARS-853]: in assay [1], the induction of apoptosis entry was “inducing apoptosis in cancer cells with KRAS G12C mutation”. Moreover, the “binding to the cysteine of the G12C mutant of inactive KRAS (GDP)” value in assay [2] is “binds to the cysteine of the G12C mutant of inactive KRAS (GDP)”.
With `C=CC(=O)N1CC(NC(=O)c2c(C)nc(CNc3n[nH]c4cc(Cl)c(C(C)(C)C)cc34)n2C)C1` [Example 3, N-(1-acryloylazetidin-3-yl)-2-(((5-(tert-butyl)-6-chloro-1H-indazol-3-yl)amino)methyl)-1,4-dimethyl-1H-imidazole-5-carboxamide], in the assay on NCI-H358 cells, the half-inhibitory concentration (IC50) was 114 nM. In addition, at G12C K-Ras4B (1-169), the “binding rate for G12C K-Ras4B (1-169)” value was “A (a binding rate of 80% or more is rated “A,”)”.
As to `C=CC(=O)N1CCN(c2ncnc3c(F)c(-c4c(O)cccc4F)c(Cl)cc23)CC1` [ARS-1620], the antitumor action entry in assay [3] is reported as “exerts antitumor action in tumor-bearing mice expressing KRAS G12C mutation”.
With `C=CC(=O)N1CC(NC(=O)c2c(C(F)F)nc(CNc3n[nH]c4cc(Cl)c(C(C)(C)C)cc34)n2C2CCN(C(C)C)C2)C1.O=CO` (centres unmarked) [Example 93, N-(1-acryloylazetidin-3-yl)-2-(((5-(tert-butyl)-6-chloro-1H-indazol-3-yl)amino)methyl)-4-(difluoromethyl)-1-(1-isopropylpyrrolidin-3-yl)-1H-imidazole-5-carboxamide formate], the IC50 with NCI-H358 cells was 40 nM. For the same compound, on G12C K-Ras4B (1-169), the “binding rate for G12C K-Ras4B (1-169)” value is on record as “A (a binding rate of 80% or more is rated “A,”)”.
With `C=CC(=O)N1CC(NC(=O)c2c(Cl)nc(CNc3n[nH]c4cc(Cl)c(C(C)(C)C)cc34)n2C(C)C)C1` [Example 35, N-(1-acryloylazetidin-3-yl)-2-(((5-(tert-butyl)-6-chloro-1H-indazol-3-yl)amino)methyl)-4-chloro-1-isopropyl-1H-imidazole-5-carboxamide], the IC50 in the assay with NCI-H358 cells worked out at 67 nM. At G12C K-Ras4B (1-169), the “binding rate for G12C K-Ras4B (1-169)” value is “B (a binding rate of 60% or more and less than 80% is rated “B,”)”.
For the compound `C=CC(=O)N1CC(NC(=O)c2c(Cl)nc(CNc3n[nH]c4cc(Cl)c(C(C)(C)C)cc34)n2C2CCCC2)C1` [Example 105, N-(1-acryloylazetidin-3-yl)-2-(((5-(tert-butyl)-6-chloro-1H-indazol-3-yl)amino)methyl)-4-chloro-1-cyclopentyl-1H-imidazole-5-carboxamide], the IC50 with NCI-H358 cells was 76 nM. Further, at G12C K-Ras4B (1-169), the “binding rate for G12C K-Ras4B (1-169)” value is “A (a binding rate of 80% or more is rated “A,”)”.
For `C=CC(=O)N1CC(NC(=O)c2c(Cl)nc(CNc3n[nH]c4cc(Cl)c(C(C)(C)C)cc34)n2C2CCOCC2)C1` [Example 101, N-(1-acryloylazetidin-3-yl)-2-(((5-(tert-butyl)-6-chloro-1H-indazol-3-yl)amino)methyl)-4-chloro-1-(tetrahydro-2H-pyran-4-yl)-1H-imidazole-5-carboxamide], the IC50 in the assay with NCI-H358 cells came to 54 nM. Moreover, the “binding rate for G12C K-Ras4B (1-169)” value on G12C K-Ras4B (1-169) is given as “A (a binding rate of 80% or more is rated “A,”)”.
As to `C=CC(=O)N1CC(NC(=O)c2c(Cl)nc(CNc3n[nH]c4cc(Cl)c(C(C)(C)C)cc34)n2C2CCN(C)CC2)C1` [Example 103, N-(1-acryloylazetidin-3-yl)-2-(((5-(tert-butyl)-6-chloro-1H-indazol-3-yl)amino)methyl)-4-chloro-1-(1-methylpiperidin-4-yl)-1H-imidazole-5-carboxamide], the IC50 in the assay on NCI-H358 cells is 29 nM. Besides, the “binding rate for G12C K-Ras4B (1-169)” value on G12C K-Ras4B (1-169) is given as “A (a binding rate of 80% or more is rated “A,”)”.
For `C=CC(=O)N1C[C@H](NC(=O)c2c(F)nc(CNc3n[nH]c4cc(Cl)c(C(C)(C)C)cc34)n2C)[C@@H](F)C1` [Example 75, N-((3S,4S)-1-acryloyl-4-fluoropyrrolidin-3-yl)-2-(((5-(tert-butyl)-6-chloro-1H-indazol-3-yl)amino)methyl)-4-fluoro-1-methyl-1H-imidazole-5-carboxamide] the same measures were 142 nM and “A (a binding rate of 80% or more is rated “A,”)”.
Regarding `C=CC(=O)N1CC(NC(=O)c2c(C(F)F)nc(CNc3n[nH]c4cc(Cl)c(C(C)(C)C)cc34)n2C(C)C)C1` [Example 33, N-(1-acryloylazetidin-3-yl)-2-(((5-(tert-butyl)-6-chloro-1H-indazol-3-yl)amino)methyl)-4-(difluoromethyl)-1-isopropyl-1H-imidazole-5-carboxamide], the IC50 in the assay with NCI-H358 cells was determined as 153 nM. For the same compound, the “binding rate for G12C K-Ras4B (1-169)” value on G12C K-Ras4B (1-169) is on record as “A (a binding rate of 80% or more is rated “A,”)”.
On to `C=CCN1CC[C@@H](n2c(CNc3n[nH]c4cc(Cl)c(C(C)(C)C)cc34)nc(Cl)c2C(=O)NC2CN(C(=O)C=C)C2)C1` [Example 123, (R)—N-(1-acryloylazetidin-3-yl)-1-(1-allylpyrrolidin-3-yl)-2-(((5-(tert-butyl)-6-chloro-1H-indazol-3-yl)amino)methyl)-4-chloro-1H-imidazole-5-carboxamide], for which, in the assay on NCI-H358 cells, the IC50 stood at 21 nM. The “binding rate for G12C K-Ras4B (1-169)” value at G12C K-Ras4B (1-169) was “A (a binding rate of 80% or more is rated “A,”)”.
On to `C=CC(=O)N1C[C@H](NC(=O)c2c(Cl)nc(CNc3n[nH]c4cc(Cl)c(C(C)(C)C)cc34)n2C)[C@@H](F)C1` [Example 76, N-((3S,4S)-1-acryloyl-4-fluoropyrrolidin-3-yl)-2-(((5-(tert-butyl)-6-chloro-1H-indazol-3-yl)amino)methyl)-4-chloro-1-methyl-1H-imidazole-5-carboxamide], for which the IC50 with NCI-H358 cells amounted to 232 nM. On G12C K-Ras4B (1-169), the “binding rate for G12C K-Ras4B (1-169)” value is given as “A (a binding rate of 80% or more is rated “A,”)”.
Take `C=CC(=O)N1CC(NC(=O)c2c(Cl)nc(CNc3n[nH]c4cc(Cl)c(C(C)(C)C)cc34)n2[C@@H]2CCOC2)C1` [Example 102, (R)—N-(1-acryloylazetidin-3-yl)-2-(((5-(tert-butyl)-6-chloro-1H-indazol-3-yl)amino)methyl)-4-chloro-1-(tetrahydrofuran-3-yl)-1H-imidazole-5-carboxamide]: in the assay on NCI-H358 cells, the IC50 came out at 69 nM. At G12C K-Ras4B (1-169), the “binding rate for G12C K-Ras4B (1-169)” value is “A (a binding rate of 80% or more is rated “A,”)”.
On to `C=CC(=O)N1CC(NC(=O)c2c(Cl)nc(CNc3n[nH]c4cc(Cl)c(C(C)(C)C)cc34)n2C2CCCOC2)C1` (centres unmarked) [Example 104, N-(1-acryloylazetidin-3-yl)-2-(((5-(tert-butyl)-6-chloro-1H-indazol-3-yl)amino)methyl)-4-chloro-1-(tetrahydro-2H-pyran-3-yl)-1H-imidazole-5-carboxamide], for which the IC50 in the assay with NCI-H358 cells amounted to 91 nM. Further, the “binding rate for G12C K-Ras4B (1-169)” value at G12C K-Ras4B (1-169) is reported as “A (a binding rate of 80% or more is rated “A,”)”.
Regarding `C=CC(=O)N1CC(NC(=O)c2c(Cl)nc(CNc3n[nH]c4cc(Cl)c(C(C)(C)C)cc34)n2[C@H]2CCOC2)C1` [Example 97, (S)—N-(1-acryloylazetidin-3-yl)-2-(((5-(tert-butyl)-6-chloro-1H-indazol-3-yl)amino)methyl)-4-chloro-1-(tetrahydrofuran-3-yl)-1H-imidazole-5-carboxamide], the IC50 in the assay on NCI-H358 cells turned out to be 52 nM. Also, on G12C K-Ras4B (1-169), the “binding rate for G12C K-Ras4B (1-169)” value is “A (a binding rate of 80% or more is rated “A,”)”.
Regarding `C=CC(=O)N1C[C@H](NC(=O)c2c(C)nc(CNc3n[nH]c4cc(Cl)c(C(C)(C)C)cc34)n2C)[C@@H](F)C1` [Example 64, N-((3S,4S)-1-acryloyl-4-fluoropyrrolidin-3-yl)-2-(((5-(tert-butyl)-6-chloro-1H-indazol-3-yl)amino)methyl)-1,4-dimethyl-1H-imidazole-5-carboxamide], the IC50 with NCI-H358 cells came out at 241 nM. Also, at G12C K-Ras4B (1-169), the “binding rate for G12C K-Ras4B (1-169)” value is given as “A (a binding rate of 80% or more is rated “A,”)”.
